The subject of data set [1] is HCV replicon in human hepatoma Huh-7 cell line. Description: Anti-HCV replicon assay, EC50 (luciferase luminescence). In kind it is cell-based. The following applies: Hepatitis C virus, Huh-7, 72 h. The gist of the method:
(§1)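 Cytotoxicity (CC50) read by CellTiter-Glo luminescence after 10 min, and antiviral EC50 by luciferase signal after 30 min lysis with substrate, both at room temperature. Preceding step: 3-day exposure of 6000 Huh-7 HCV replicon cells per well to compound dilution series at 37° C, 5% CO2, in 0.5% DMSO.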

Data set [2] is described as follows: CC50 assay (CellTiter-Glo) in Huh-7 HCV replicon cells. In kind it is cell-based. To be noted: human, Table 2, 3 days incubation. The method in brief:
as §1
Background: ATP-based viability assays read luminescence as a measure of living cells.

The values below come from patent US8536187B2 (Gilead Sciences, Inc., priority 2008, dated 2013).

The EC50 is the concentration that produces a half-maximal response. Read a high EC50 as lower potency in that assay. A word on the CC50: it is the concentration giving 50% cytotoxicity. A lower CC50 goes with greater toxicity to the cells.

`COCC#Cc1ccc2nc(NCc3cc(Cl)cc(S(N)(=O)=O)c3)nc(NC3(C(F)(F)F)CC3)c2n1` [Example 46, 3-chloro-5-((6-(3-methoxyprop-1-ynyl)-4-(1-(trifluoromethyl)cyclopropyl-amino)pyrido[3,2-d]pyrimidin-2-ylamino)methyl)benzene-sulfonamide]: in data set [1], the EC50 is less than 100 nM. Moreover, in data set [2], the CC50 at 3 days is more than 10000 nM.
On the same counts, the results for `COc1ccc(-c2ccc3nc(NCc4ccc(F)c(F)c4)nc(NCC(F)(F)F)c3n2)cc1S(N)(=O)=O` [Example 234, 5-(2-(3,4-difluorobenzylamino)-4-(2,2,2-trifluoroethylamino)pyrido[3,2-d]pyrimidin-6-yl)-2-methoxybenzenesulfonamide] are less than 100 nM and more than 10000 nM.
On the same counts, the results for `C#Cc1ccc2nc(N[C@H](C)c3ccc(S(N)(=O)=O)cc3)nc(OC3CC3)c2n1` [Example 294, (R)-4-(1-(4-cyclopropoxy-6-ethynylpyrido[3,2-d]pyrimidin-2-ylamino)ethyl)benzene-sulfonamide] are less than 100 nM and 1000 to 10000 nM.
As to `Cc1ccc(-c2ccc3nc(NCc4ccc(-n5cncn5)cc4)nc(NCC(F)(F)F)c3n2)cc1S(C)(=O)=O` [Example 179, N^2-(4-(1H-1,2,4-triazol-1-yl)benzyl)-6-(4-methyl-3-(methylsulfonyl)phenyl)-N^4-(2,2,2-trifluoroethyl)pyrido [3,2-d]pyrimidine-2,4-diamine], in data set [1], the EC50 is less than 100 nM. For the same compound, the CC50 at 3 days in data set [2] was more than 10000 nM.
`CS(=O)(=O)c1cccc(CNc2nc(NC3(C(F)(F)F)CC3)c3nc(-c4ccc(F)cc4)ccc3n2)c1` [Example 86, N^2-(3-(methylsulfonyl)benzyl)-6-(4-fluorophenyl)-N^4-(1-(trifluoromethyl)cyclopropyl) pyrido[3,2-d]pyrimidine-2,4-diamine]: in data set [1], the EC50 was less than 100 nM. In data set [2], this compound yielded a 50% cytotoxic concentration (CC50) at 3 days of more than 10000 nM.
The compound `NS(=O)(=O)c1cc(CNc2nc(NC3(C(F)(F)F)CC3)c3nc(-c4ccc(F)cc4)ccc3n2)ccc1F` [Example 25, 2-fluoro-5-{[6-(4-fluorophenyl)-4-(1-trifluoromethyl-cyclopropylamino)-pyrido[3,2-d]pyrimidin-2-ylamino]-methyl}-benzenesulfonamide] came in with an EC50 in data set [1] of less than 100 nM. This compound also came in with a CC50 at 3 days in data set [2] of more than 10000 nM.
On the same counts, the results for `CS(=O)(=O)c1cccc(-c2ccc3nc(NCc4ccc(-n5cncn5)cc4)nc(OC4CCC4)c3n2)c1` [Example 202, N-(4-(1H-1,2,4-triazol-1-yl)benzyl)-4-cyclobutoxy-6-(3-(methylsulfonyl)phenyl)pyrido [3,2-d]pyrimidin-2-amine] are less than 100 nM and more than 10000 nM.
For `C#Cc1ccc2nc(NCc3ccc(S(N)(=O)=O)cc3)nc(N[C@@H](C)C(F)(F)F)c2n1` [Example 289, (S)-4-((6-ethynyl-4-(1,1,1-trifluoropropan-2-ylamino)pyrido[3,2-d]pyrimidin-2-ylamino)methyl)benzene-sulfonamide], in that order: less than 100 nM and 1000 to 10000 nM.
For `C[C@@H](Nc1nc(NCC(F)(F)F)c2nc(-c3cccc(S(C)(=O)=O)c3)ccc2n1)c1ccc(-n2cncn2)cc1` [Example 170, N^2-((R)-1-(4-(1H-1,2,4-triazol 1-yl)phenyl)ethyl)-6-(3-(methylsulfonyl)phenyl)-N^4-(2,2,2-trifluoroethyl)pyrido [3,2-d]pyrimidine-2,4-diamine], in that order: less than 100 nM and 1000 to 10000 nM.
As to `CS(=O)(=O)c1cc(-c2ccc3nc(NCc4ccc(-n5cncn5)cc4)nc(OC4CC4)c3n2)ccc1OC(F)F` [Example 192, N-(4-(1H-1,2,4-triazol-1-yl)benzyl)-4-cyclopropoxy-6-(4-(difluoromethoxy)-3-(methylsulfonyl)phenyl)pyrido [3,2-d]pyrimidin-2-amine], the EC50 in data set [1] is less than 100 nM. The compound further came in with a CC50 at 3 days in data set [2] of 1000 to 10000 nM.
For `CCS(=O)(=O)c1cccc(-c2ccc3nc(N[C@H](C)c4ccc(-n5cncn5)cc4)nc(NCC(F)(F)F)c3n2)c1` [Example 182, N^2-((R)-1-(4-(1H-1,2,4-triazol-1-yl)phenyl)ethyl)-6-(3-(ethylsulfonyl)phenyl)-N^4-(2,2,2-trifluoroethyl)pyrido [3,2-d]pyrimidine-2,4-diamine], in that order: less than 100 nM and 1000 to 10000 nM.
For `Cc1ccc(-c2ccc3nc(NCc4cccc(S(C)(=O)=O)c4)nc(NCC(F)(F)F)c3n2)cc1S(C)(=O)=O` [Example 173, N^2-(3-(methylsulfonyl)benzyl)-6-(4-methyl-3-(methylsulfonyl)phenyl)-N^4-(2,2,2-trifluoroethyl) pyrido[3,2-d]pyrimidine-2,4-diamine], in that order: less than 100 nM and 1000 to 10000 nM.
`COc1ccc(-c2ccc3nc(NCc4cccc(S(N)(=O)=O)c4)nc(NCC(F)(F)F)c3n2)cc1S(C)(=O)=O` [Example 144, 3-((6-(4-methoxy-3-(methylsulfonyl)phenyl)-4-(2,2,2-trifluoroethylamino)pyrido[3,2-d]pyrimidin-2-ylamino)methyl)benzene-sulfonamide] showed a half-maximal effective concentration (EC50) in data set [1] of less than 100 nM. The compound further showed a CC50 at 3 days in data set [2] of 1000 to 10000 nM.
On the same counts, the results for `NS(=O)(=O)c1cc(-c2ccc3nc(NCc4ccc(-n5cncn5)cc4)nc(NC4(C(F)(F)F)CC4)c3n2)ccc1Cl` [Example 37, 5-(2-(4-(1H-1,2,4-triazol-1-yl)benzylamino)-4-(1-(trifluoromethyl)cyclopropyl-amino)pyrido[3,2-d]pyrimidin-6-yl)-2-chlorobenzenesulfonamide] are less than 100 nM and 1000 to 10000 nM.
On the same counts, the results for `NC(=O)c1ccc(CNc2nc(NC3(C(N)=O)CC3)c3nc(-c4ccc(F)cc4)ccc3n2)cn1` [Example 133, 5-((4-(1-carbamoylcyclo-propylamino)-6-(4-fluorophenyl)pyrido[3,2-d]pyrimidin-2-ylamino)methyl)picolinamide] are 100 to 250 nM and more than 10000 nM.
Compound `NS(=O)(=O)c1ccc(CNc2nc(NC3(C(F)(F)F)CC3)c3nc(-c4ccc(F)nc4)ccc3n2)cc1` [Example 96, 4-((6-(6-fluoropyridin-3-yl)-4-(1-(trifluoromethyl)cyclopropyl-amino)pyrido[3,2-d]pyrimidin-2-ylamino)methyl)benzene-sulfonamide] returned an EC50 in data set [1] of less than 100 nM. In addition, the CC50 at 3 days in data set [2] was 1000 to 10000 nM.
In data set [1], `CC1(Oc2nc(NCc3ccc(-n4cncn4)cc3)nc3ccc(-c4ccc(OC5CCC5)nc4)nc23)CC1` [Example 249, N-(4-(1H-1,2,4-triazol-1-yl)benzyl)-6-(6-cyclobutoxy-pyridin-3-yl)-4-(1-methylcyclo-propoxy)pyrido[3,2-d] pyrimidin-2-amine] yielded an EC50 of less than 100 nM. Also, in data set [2], the CC50 at 3 days lay within 1000 to 10000 nM.
On the same counts, the results for `C[C@@H](Nc1nc(NC2(C(F)(F)F)CC2)c2nc(-c3cnc(NC4CC4)c(F)c3)ccc2n1)c1ccc(-n2cncn2)cc1` [Example 131, N^2-((R)-1-(4-(1H-1,2,4-triazol-1-yl)phenyl)ethyl)-6-(6-(cyclopropylamino)-5-fluoropyridin-3-yl)-N^4-(1-(trifluoromethyl)cyclopropyl) pyrido[3,2-d]pyrimidine-2,4-diamine] are 100 to 250 nM and 1000 to 10000 nM.
